The text below walks through data of patent publication US5472942A, “Anti-thrombins” (priority 1988, dated 1995).

For this test, the system named is human blood. Nature of the test: Partial thromboplastic time. The following applies: equivalent doses; anti-thrombin of the invention compared with hirudin. The source says:
The anti-thrombin according to the invention and hirudin do however, have similar partial thromboplastic times for equivalent doses.

Regarding “hirudin: thrombin-specific polypeptide of 65 amino acids from Hirudo medicinalis [reference compound]”, the partial thromboplastic times result is listed as “similar”.
